According to patent publication EP3981864A1, “DETERGENT COMPOSITION” (priority 2020, dated 2022):

Experiments:
[1] = biological target: T1, Arabidopsis thaliana αDOX (SEQ ID NO: 10), fatty acid alpha-dioxygenase, Q9C9U3, variant with N-terminal His-tag, MBP tag and TEV site SEQ ID NO: 267 (comparati (Arabidopsis thaliana, UniProt Q9C9U3)); assay: Alpha-dioxygenase activity assay (oxygen consumption, TON); type: biochemical; settings: fatty acid 100 µM, enzyme 6 ppm, 50 mM HEPES pH 9.0, 37°C; initial rate of oxygen consumption / enzyme concentration
T1 construct: His-tag (N); MBP tag (N); TEV protease cleavage site (N); made in house; host or cells: Escherichia coli BL21 (DE3), modified pET28a
T1 sequence (Q9C9U3 21-631): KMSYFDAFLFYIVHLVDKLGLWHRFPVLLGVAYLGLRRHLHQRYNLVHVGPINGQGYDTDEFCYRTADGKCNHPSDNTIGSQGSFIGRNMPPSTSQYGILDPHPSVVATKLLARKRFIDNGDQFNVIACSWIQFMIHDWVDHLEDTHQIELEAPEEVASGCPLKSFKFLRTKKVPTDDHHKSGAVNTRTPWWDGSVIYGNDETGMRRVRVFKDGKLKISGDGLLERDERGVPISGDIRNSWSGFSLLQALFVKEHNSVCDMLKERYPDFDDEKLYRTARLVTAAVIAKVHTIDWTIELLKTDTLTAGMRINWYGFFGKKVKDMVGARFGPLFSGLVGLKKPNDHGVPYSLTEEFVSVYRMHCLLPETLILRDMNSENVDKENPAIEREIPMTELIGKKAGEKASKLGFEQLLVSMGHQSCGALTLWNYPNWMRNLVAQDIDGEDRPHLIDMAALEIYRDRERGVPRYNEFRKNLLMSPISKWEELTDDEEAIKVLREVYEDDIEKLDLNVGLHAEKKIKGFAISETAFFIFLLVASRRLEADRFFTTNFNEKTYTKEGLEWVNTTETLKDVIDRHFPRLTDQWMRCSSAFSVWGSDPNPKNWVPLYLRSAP
Text: Arabidopsis thaliana αDOX (SEQ ID NO: 10) is a fatty acid alpha-dioxygenase that converts fatty acids into the corresponding 2-hydroperoxy fatty acids and is included as a comparative example of the present invention. A codon optimized gene (SEQ ID NO: 266) encoding for an alpha-dioxygenase variant was designed and synthesized by Genscript. After synthesis, the gene was cloned into a modified version of pET28a, such as the final plasmid encoded for a αDOX variant including an N-terminal amino acid sequence containing a His-tag, an MBP tag, and a TEV protease cleavage site (SEQ ID NO: 267). For heterologous expression, Escherichia coli BL21 (DE3) cells were transformed with the recombinant plasmid and a single colony was inoculated into LB medium containing kanamycin (50 mg/L). A pre-starter culture was then inoculated into flasks containing TB Media supplemented with kanamycin (50 mg/L) and incubated at 37 °C. At an OD600nm about 3.8, IPTG (final concentration 0.1 mM) and 5-aminolevulinic acid (final concentration 0.25 mM) were added to the culture and further incubated at 16 °C for 16 h. Cells were harvested by centrifugation and the pellet was lysed. After centrifugation, the supernatant was collected, and the protein was purified by one-step purification using Ni-NTA affinity chromatography and standard protocols known in the art. The protein was stored in 1×PBS buffer containing 10% Glycerol and at pH 7.4. The purified enzyme was stored at -80 °C until use.
Reactions with alpha-dioxygenases were performed as follows. An aliquot of fatty acid in ethanol (final concentration 100 µM) was resuspended in buffer (50 mM HEPES at pH 9.0) in a scintillation vial. The reaction was started by addition of enzyme (final concentration 6 ppm). The reaction was incubated for up to 10 minutes at 37°C with 200 rpm agitation and the conversion was monitored using an oxygen sensor. The TON (in s-1) were calculated as the ratio between the initial rate of oxygen consumption (in µM/s) and the concentration of enzyme (in µM). […]

[2] = tested on: Medicago truncatula αDOX (SEQ ID NO: 9), fatty acid alpha-dioxygenase, A4PRI0, N-terminal His-tag variant SEQ ID NO: 265 (comparative); assay: as above; type: biochemical; settings: fatty acid 100 µM, enzyme 6 ppm, 50 mM HEPES pH 9.0, 37°C; initial rate of oxygen consumption / enzyme concentration
Text: Medicago truncatula αDOX (SEQ ID NO: 9) is a fatty acid alpha-dioxygenase that converts fatty acids into the corresponding 2-hydroperoxy fatty acids and is included as a comparative example of the present invention. A codon optimized gene (SEQ ID NO: 264) encoding for an alpha-dioxygenase variant (SEQ ID NO: 265), including an N-terminal amino acid sequence containing a His-tag was designed and synthesized by Genscript. After gene synthesis, the protein was expressed and purified. In brief, the complete synthetic gene sequence was subcloned into a pET30a vector using the NdeI/HindIII cloning sites. For heterologous expression, Escherichia coli BL21 (DE3) cells were transformed with the recombinant plasmid and a single colony was inoculated into LB medium containing kanamycin (50 mg/L). A pre-starter culture was then inoculated into flasks containing Magic Media (Thermo Fisher, Catalog # K6803) supplemented with kanamycin (50 mg/L) and incubated at 16 °C for 72 h. At an OD600nm = 0.5 - 1.0, 5-aminolevulinic acid (final concentration 0.5 mM) was added. Cells were harvested by centrifugation at 5000 rpm and 4°C and the pellet was lysed using a bacterial cell lysis buffer (B-PER - Themo Fisher, Waltham, MA). After centrifugation, the supernatant was collected, and the protein was purified by one-step purification using HisPur™ Ni-NTA Spin Columns (Thermo Scientific, Catalog # 88226) and standard protocols known in the art. The protein was concentrated using a 10 kDa MW cutoff Amicon Ultra centrifugal filter unit (Millipore Sigma, Catalog# UFC901024), followed by desalting using a disposable PD-10 desalting column (GE Healthcare Life Sciences, Catalog# 17085101) and a buffer containing 50 mM Tris-HCl, 500 mM NaCl, and 10% Glycerol at pH 8.0. […]
Reactions with alpha-dioxygenases were performed as follows. […] The reaction was incubated for up to 10 minutes at 37°C with 200 rpm agitation and the conversion was monitored using an oxygen sensor. The TON (in s-1) were calculated as the ratio between the initial rate of oxygen consumption (in µM/s) and the concentration of enzyme (in µM). […]

CCCCCCCC/C=C\CCCCCCCC(=O)O [Oleic Acid]
Oleic Acid, TON [1]: 0.13 s⁻¹
Oleic Acid, TON [2]: 0.06 s⁻¹

CCCCCCCCCCCCCCCC(=O)O [Palmitic Acid]
Palmitic Acid, TON [1]: 0.54 s⁻¹
Palmitic Acid, TON [2]: 0.57 s⁻¹

CCCCCCCCCCCCCCCCCC(=O)O [Stearic Acid]
Stearic Acid, TON [1]: 0.13 s⁻¹
Stearic Acid, TON [2]: 0.02 s⁻¹
